From patent US5840918A, “Isoprenyl transferase inhibitors” (Eisai Co., Ltd., priority 1997, dated 1998)
Entries after “also recorded” stand apart in the source; their conditions may differ.

Key:
MIApaca-2 = assay: Inhibition of anchorage-independent tumor cell growth, MIApaca-2; format: cell-based; conditions: Homo sapiens, MIA PaCa-2, 336 h; MIApaca-2, 14 days, soft agar
Description: (§1) HT1080 is a […] with a N-ras mutation. MIApaca-2 is a pancreatic carcinoma and Sw620 is a colonic carcinoma; each of these has a K-ras mutation. T24 is a bladder carcinoma with a H-ras mutation; and zH1 is a H-ras-transformed NIH/3T3 mouse fibroblast. Additional compounds have been tested and have yielded positive results in these organ-specific or ras-protein specific anchorage-independent tumor cell models.
(§2) Five tumor cell lines were seeded at 600 cells/well (12-well plates) in 0.6 mL of 0.3% Noble agar in culture medium over a bottom agar layer (0.5% Noble agar in culture medium). The culture medium was Dulbecco's modified Eagle's medium (Nissui Pharmaceutical Co., Ltd., Tokyo, Japan), supplemented with 10% heat-inactivated calf serum (GIBCO, Grand Island, N.Y.). A 10 mM stock solution of inhibitor compound PD331 in DMSO was diluted with culture medium to 3× the final concentration and 0.6 mL of the diluted inhibitor solution was overlayed on each well. Controls contained the same amount of DMSO as inhibitor samples. Plates were incubated at 37° C. in 5% CO2 for 14 days. Colonies were counted by replacement of the overlaying medium with 0.6 mL of 2 mg/mL MTT in PBS, incubation for 30 min, and quantitation of scanned photographs. IC50 concentrations for each cell line are shown below in Table 3.

[1] = tested on: H-ras farnesylation in H-ras (61L) transformed NIH3T3 fibroblasts; assay: Inhibition of H-ras farnesylation in whole cells (Western blot); format: cell-based, mouse; conditions: Mus musculus, NIH3T3, 24 h, Table 2
T24 = assay: Inhibition of anchorage-independent tumor cell growth, T24; format: cell-based; conditions: Homo sapiens, T-24, 336 h; T24, 14 days, soft agar
Description: as §1, §2

FTase = biological target: T1, FTase (Bos taurus, UniProt P29702+P49355); assay: Inhibition of FTase-mediated prenylation (in vitro prenylation assay); format: biochemical; conditions: Table 1; partially purified FTase, 3 μM recombinant H-ras, 440 nM [3H]FPP, 15 min 37° C
T1 construct: bovine brain by inference from the cited Moores et al. 1991
Description: (§3) Nanomolar concentrations of the indicated compounds were sufficient to inhibit farnesylation of ras proteins in vitro. For screening candidate compounds useful for the treatment of ras-associated tumors, the FTase assay is preferred. […] Substitutions which confer GGTase specificity as taught herein also produced potent inhibitors of GGTase.

GGTase = assay: Inhibition of GGTase-mediated prenylation (in vitro prenylation assay); format: biochemical; conditions: Table 1; partially purified GGTase, 5 μM recombinant H-ras (61L, CAIL), 1 μM [3H] geranylgeranyl diphosphate
Description: as §3

[2] = tested on: zH1 (H-ras-transformed NIH/3T3 mouse fibroblast); assay: Inhibition of anchorage-independent tumor cell growth, zH1; format: cell-based; conditions: NIH3T3, 336 h, zH1, 14 days, soft agar
Description: as §1, §2

HT1080 = assay: Inhibition of anchorage-independent tumor cell growth, HT1080; format: cell-based; conditions: Homo sapiens, HT-1080, 336 h; HT1080, 14 days, soft agar
Description: as §1, §2

[3] = tested on: H-ras (61L) transformed NIH3T3 fibroblast tumors; assay: Inhibition of tumor xenograft in mice, Example D (PD331); format: in vivo, mouse; conditions: for T/C (%) Volume / Tumor Volume: day 14
Description: Cells were harvested from exponential-phase maintenance cultures (T-225 cm^2 culture flasks, Corning Inc., Corning, N.Y.) with trypsin-EDTA (GIBCO), centrifuged at 160 ×g for 5 min, washed once with 10 mL cold Hank's balanced salt solution (HBSS, GIBCO), and resuspended at a concentration of 1×10^6 cells/mL. Five week old female athymic nude mice were obtained from SLC (3371-8, Kotoummachi, Hamamatsu-shi, Shizuoka 431-11, Japan) and maintained under pathogen-free conditions. […] Inhibitor compound PD331 was suspended in saline containing 2% Tween-80 in a total injection volume of 0.2 mL. Two dosage concentrations were prepared, 0.3 mg/mouse or 1.0 mg/mouse. Compound PD331 was subcutaneously injected daily at the site of tumor cell implantation for 5 consecutive days, starting approximately 8 h after the implantation (day 0). The control group was injected with vehicle only. Body weight and tumor dimensions were measured at days 7, 10, and 14. Tumor volume was estimated by the following calculation: tumor volume =(0.5)(length×width×width). At day 14, each mouse was euthanized with CO2 (g), and each tumor was excised and weighed. The statistical significance was estimated by the Student's T-test.

Sw620 = assay: Inhibition of anchorage-independent tumor cell growth, Sw620; format: cell-based; conditions: Homo sapiens, SW-620, 336 h; Sw620, 14 days, soft agar
Description: as §1, §2

[4] = 0.3 mg/mouse s.c. daily for 5 days
[5] = 1.0 mg/mouse s.c. daily for 5 days

- IC50 (MIApaca-2): 19000 nM
- IC50 (T24): 300 nM
- IC50 (FTase): 11 nM
- IC50 (GGTase): 13 nM
- IC50 (HT1080): 1800 nM
- IC50 (Sw620): 22000 nM
Compound: CSCC[C@H](NC(=O)C(/C=C\[C@@H](/C=C/[C@@H](N)CS)C(C)C)Cc1ccccc1)C(=O)O (some centres unmarked) [PD331]
- IC50 [1]: 400 nM
- IC50 [2]: 600 nM
- T/C (%) Volume [3, 4]: 53.3%
- Tumor Volume [3, 4]: 871.28 ± 526.90 µL
- T/C (%) Volume [3, 5]: 16.5%
- Tumor Volume [3, 5]: 269.55 ± 292.95 µL
- weight and volume of tumors versus control group ([3]; every concentration): both the weight and the volume of the tumors from the treated group were less than the weight and volume of tumors from the control group
- effect on H-ras tumor growth in mice ([3]; mouse, in vivo): has a significant effect on H-ras tumor growth in mice; also recorded: effectively inhibited the growth of ras-associated tumors in mice
